Measured values from publication PMC9942948 (Journal of medicinal chemistry, 2022).
Each block holds one compound with its values, some of them ahead of it.

Experiments:
WT Polθ = WT Polθ (Homo sapiens, UniProt O75417); experiment: Differential Scanning Fluorimetry; format: binding; conditions: compound alone, no DNA
[1] = Mouse liver microsomal stability; format: in vitro ADME; conditions: liver microsomes
[2] = Metabolite identification in human microsomes; format: in vitro ADME
[3] = Metabolite identification in mouse microsomes; format: in vitro ADME
Pol λ = target: T1, Pol λ (Homo sapiens, UniProt Q9UGP5); experiment: DNA polymerase selectivity, Pol λ
T1 sequence (Q9UGP5 1-575): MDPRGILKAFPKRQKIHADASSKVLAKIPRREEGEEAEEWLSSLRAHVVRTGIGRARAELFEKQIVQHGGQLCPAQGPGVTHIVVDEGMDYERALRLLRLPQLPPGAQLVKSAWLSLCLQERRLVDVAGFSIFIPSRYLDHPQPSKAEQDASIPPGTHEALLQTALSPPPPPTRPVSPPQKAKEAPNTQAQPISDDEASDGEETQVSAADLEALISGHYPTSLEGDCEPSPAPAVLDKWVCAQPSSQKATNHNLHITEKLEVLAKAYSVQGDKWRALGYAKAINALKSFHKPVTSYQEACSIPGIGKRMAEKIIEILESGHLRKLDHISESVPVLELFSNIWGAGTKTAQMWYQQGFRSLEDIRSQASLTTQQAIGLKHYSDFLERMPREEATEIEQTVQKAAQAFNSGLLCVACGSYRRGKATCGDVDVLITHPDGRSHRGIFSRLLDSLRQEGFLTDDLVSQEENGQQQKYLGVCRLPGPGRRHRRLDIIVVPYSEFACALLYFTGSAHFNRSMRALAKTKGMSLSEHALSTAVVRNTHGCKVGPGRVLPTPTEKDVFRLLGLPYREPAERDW

[4] = Tolerability in the xenograft study; format: in vivo
Pol μ = Pol μ (Homo sapiens, UniProt Q9NP87); experiment: DNA polymerase selectivity, Pol μ
[5] = tested on: HCT116 BRCA2+/+ xenograft tumors; experiment: HCT116 BRCA2+/+ xenograft efficacy; format: in vivo, mouse; conditions: 80 mg/kg BID PO, 21 days
[6] = tested on: Polθ-mediated MMEJ repair at AAVS1 locus in HCT116 WT cells; experiment: Cas9-induced double-strand DNA break assay; format: cell-based; conditions: Homo sapiens, HCT-116, read-out: potency in DSB repair of AAVS1 loci
[7] = tested on: MMEJ in 293T-Lig4−/−TLR1.1 cells; experiment: Traffic-light reporter assay; format: cell-based, human; conditions: HEK293 LIG4−/− cell line
Pol ε = Pol ε (Homo sapiens, UniProt Q07864); experiment: DNA polymerase selectivity, Pol ε
Sequence of Pol ε (Q07864 whole entry): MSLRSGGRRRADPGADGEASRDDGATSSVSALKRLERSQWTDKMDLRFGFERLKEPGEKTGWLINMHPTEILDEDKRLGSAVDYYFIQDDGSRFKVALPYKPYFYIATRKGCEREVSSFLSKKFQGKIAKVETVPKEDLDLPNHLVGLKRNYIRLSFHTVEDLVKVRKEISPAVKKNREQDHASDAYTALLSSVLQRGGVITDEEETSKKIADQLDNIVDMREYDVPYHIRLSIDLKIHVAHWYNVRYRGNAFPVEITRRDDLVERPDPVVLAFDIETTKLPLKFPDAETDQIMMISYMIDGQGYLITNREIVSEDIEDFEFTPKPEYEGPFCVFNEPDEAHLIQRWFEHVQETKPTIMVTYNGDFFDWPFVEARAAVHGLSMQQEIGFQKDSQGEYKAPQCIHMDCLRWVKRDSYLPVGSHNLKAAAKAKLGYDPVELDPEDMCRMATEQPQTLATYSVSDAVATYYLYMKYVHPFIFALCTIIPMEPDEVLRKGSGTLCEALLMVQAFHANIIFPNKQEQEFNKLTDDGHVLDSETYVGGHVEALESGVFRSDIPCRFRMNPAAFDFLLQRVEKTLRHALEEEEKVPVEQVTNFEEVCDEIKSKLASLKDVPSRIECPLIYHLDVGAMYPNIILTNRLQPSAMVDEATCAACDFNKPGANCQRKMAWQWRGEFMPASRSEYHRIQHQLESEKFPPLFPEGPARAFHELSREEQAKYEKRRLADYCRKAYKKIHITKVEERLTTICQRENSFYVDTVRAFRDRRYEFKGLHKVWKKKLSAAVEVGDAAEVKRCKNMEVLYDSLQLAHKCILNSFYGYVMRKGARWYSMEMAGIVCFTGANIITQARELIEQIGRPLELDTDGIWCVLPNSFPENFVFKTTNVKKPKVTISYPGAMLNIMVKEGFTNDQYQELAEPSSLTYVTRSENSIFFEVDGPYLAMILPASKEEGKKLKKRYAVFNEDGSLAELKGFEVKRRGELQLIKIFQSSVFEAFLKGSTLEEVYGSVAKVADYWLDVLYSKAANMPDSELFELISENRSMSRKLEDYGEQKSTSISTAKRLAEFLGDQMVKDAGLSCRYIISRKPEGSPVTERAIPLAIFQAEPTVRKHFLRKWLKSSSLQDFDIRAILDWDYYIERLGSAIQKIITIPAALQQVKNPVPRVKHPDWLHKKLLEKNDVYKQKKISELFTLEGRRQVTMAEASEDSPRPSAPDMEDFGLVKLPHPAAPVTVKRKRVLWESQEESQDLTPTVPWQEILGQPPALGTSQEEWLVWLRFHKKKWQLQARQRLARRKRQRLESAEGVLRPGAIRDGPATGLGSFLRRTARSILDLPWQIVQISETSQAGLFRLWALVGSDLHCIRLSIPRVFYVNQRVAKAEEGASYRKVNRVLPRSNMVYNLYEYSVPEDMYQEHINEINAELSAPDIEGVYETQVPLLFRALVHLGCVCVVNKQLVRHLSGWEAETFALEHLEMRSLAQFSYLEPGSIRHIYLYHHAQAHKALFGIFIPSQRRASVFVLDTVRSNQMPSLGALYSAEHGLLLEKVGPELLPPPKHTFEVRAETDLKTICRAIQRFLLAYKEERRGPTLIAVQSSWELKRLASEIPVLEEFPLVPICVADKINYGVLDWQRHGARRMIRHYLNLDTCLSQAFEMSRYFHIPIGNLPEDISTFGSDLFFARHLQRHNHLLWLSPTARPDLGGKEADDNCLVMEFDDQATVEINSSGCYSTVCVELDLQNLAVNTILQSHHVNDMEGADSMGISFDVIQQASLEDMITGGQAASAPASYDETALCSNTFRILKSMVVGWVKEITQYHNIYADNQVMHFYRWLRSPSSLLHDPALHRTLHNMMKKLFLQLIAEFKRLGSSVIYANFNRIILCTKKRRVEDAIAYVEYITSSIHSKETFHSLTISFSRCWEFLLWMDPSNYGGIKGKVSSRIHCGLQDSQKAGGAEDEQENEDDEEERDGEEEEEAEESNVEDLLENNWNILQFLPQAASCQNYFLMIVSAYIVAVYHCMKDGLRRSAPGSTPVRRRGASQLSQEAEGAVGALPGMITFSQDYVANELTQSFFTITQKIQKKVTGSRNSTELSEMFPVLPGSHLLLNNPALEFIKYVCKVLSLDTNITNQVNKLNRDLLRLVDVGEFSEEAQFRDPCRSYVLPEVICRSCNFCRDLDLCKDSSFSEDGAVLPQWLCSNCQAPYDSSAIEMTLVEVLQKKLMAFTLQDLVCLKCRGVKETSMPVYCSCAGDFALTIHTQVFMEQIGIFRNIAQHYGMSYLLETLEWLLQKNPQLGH

in vitro = in vitro ADME, canine; conditions: dog, MDCK
[8] = tested on: HCT116 BRCA2−/− xenograft tumor cells; experiment: PD markers by immunofluorescence in cells isolated from tumors; format: in vivo, mouse
[9] = target: full-length Polθ (aa 1–2590), ATPase activity (Homo sapiens, UniProt O75417); experiment: Full-length Polθ ATPase activity; format: biochemical
Sequence of full-length Polθ (aa 1–2590), ATPase activity (O75417 whole entry, the tested form may be a part): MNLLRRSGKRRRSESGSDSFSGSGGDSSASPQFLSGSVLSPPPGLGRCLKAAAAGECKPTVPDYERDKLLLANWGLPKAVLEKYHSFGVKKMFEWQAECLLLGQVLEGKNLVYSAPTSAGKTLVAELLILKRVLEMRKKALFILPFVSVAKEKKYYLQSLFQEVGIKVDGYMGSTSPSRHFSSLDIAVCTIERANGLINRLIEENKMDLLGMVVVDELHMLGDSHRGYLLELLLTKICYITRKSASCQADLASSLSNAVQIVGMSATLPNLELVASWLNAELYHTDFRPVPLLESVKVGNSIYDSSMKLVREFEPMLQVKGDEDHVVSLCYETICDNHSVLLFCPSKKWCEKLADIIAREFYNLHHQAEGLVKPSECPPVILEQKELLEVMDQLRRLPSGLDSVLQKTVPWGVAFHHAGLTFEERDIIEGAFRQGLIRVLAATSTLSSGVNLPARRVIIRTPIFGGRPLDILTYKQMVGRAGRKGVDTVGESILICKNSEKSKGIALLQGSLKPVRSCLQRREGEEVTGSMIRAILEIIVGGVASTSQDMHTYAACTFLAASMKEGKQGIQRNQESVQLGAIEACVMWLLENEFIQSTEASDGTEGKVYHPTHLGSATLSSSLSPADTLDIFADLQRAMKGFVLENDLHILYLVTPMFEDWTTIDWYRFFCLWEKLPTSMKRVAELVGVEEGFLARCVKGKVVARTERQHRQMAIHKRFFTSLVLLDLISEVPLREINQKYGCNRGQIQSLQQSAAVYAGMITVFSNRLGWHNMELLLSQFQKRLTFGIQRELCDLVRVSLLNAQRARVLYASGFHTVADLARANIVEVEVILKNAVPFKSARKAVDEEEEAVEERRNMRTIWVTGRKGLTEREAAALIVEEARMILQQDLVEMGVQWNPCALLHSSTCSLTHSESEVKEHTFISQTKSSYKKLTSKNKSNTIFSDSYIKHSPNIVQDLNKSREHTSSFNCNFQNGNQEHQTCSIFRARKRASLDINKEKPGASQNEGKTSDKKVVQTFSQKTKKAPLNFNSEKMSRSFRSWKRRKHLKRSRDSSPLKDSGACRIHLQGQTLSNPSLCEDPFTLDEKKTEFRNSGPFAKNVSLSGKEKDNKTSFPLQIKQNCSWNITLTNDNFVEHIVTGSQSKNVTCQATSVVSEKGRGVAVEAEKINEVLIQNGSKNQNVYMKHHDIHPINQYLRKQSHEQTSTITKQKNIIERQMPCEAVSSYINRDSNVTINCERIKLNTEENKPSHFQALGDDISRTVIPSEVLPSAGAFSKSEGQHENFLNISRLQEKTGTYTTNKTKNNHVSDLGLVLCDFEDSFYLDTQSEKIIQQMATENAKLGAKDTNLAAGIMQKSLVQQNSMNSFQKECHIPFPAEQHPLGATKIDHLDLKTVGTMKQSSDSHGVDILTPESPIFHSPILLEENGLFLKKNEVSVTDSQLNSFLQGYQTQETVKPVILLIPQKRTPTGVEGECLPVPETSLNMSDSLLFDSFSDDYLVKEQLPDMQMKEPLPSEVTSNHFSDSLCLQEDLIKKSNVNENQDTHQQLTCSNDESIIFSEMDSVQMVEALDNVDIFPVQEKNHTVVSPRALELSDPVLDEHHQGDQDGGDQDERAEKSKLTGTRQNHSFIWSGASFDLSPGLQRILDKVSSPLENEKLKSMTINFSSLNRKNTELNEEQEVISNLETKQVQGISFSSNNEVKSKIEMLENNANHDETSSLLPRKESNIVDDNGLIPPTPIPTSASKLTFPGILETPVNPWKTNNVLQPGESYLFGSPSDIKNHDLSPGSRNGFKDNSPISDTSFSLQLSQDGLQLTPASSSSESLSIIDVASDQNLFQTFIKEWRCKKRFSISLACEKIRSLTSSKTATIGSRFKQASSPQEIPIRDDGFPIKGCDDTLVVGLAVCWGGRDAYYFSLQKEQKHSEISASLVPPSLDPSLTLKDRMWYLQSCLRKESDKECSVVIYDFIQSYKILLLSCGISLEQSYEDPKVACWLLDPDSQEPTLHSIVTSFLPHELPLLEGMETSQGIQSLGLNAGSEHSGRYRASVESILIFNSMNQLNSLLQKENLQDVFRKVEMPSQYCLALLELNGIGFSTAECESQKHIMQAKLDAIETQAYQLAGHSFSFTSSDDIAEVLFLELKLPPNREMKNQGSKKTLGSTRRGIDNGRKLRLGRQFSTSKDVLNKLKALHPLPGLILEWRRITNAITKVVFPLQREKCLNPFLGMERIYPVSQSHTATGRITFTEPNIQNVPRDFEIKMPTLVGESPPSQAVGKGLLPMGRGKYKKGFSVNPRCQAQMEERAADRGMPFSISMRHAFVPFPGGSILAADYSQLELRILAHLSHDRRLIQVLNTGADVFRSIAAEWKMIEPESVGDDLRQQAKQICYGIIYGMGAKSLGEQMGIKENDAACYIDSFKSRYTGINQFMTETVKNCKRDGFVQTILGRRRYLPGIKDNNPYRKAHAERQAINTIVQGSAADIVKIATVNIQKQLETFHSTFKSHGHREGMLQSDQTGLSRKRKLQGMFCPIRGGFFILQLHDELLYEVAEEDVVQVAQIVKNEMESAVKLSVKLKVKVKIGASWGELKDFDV

[10] = Mouse PK, iv/po in CD1 mice; format: in vivo; conditions: female, whole blood, 2.5 mg/kg
[11] = PK on days 1 and 7 of BID oral dosing in CD-1 nude mice; format: in vivo; conditions: Day 7 vs Day 1, BID oral
[12] = tested on: HCT116 BRCA2−/− xenograft tumors; experiment: HCT116 BRCA2−/− xenograft efficacy; format: in vivo, mouse; conditions: 80 mg/kg BID PO, BRCA2-deficient HCT116
[13] = nude mice, 80 mg/kg BID PO, 21 days

Sequence of WT Polθ (O75417 whole entry): as the sequence (O75417 whole entry, the tested form may be a part) above

thermal stabilization of WT Polθ (WT Polθ): did not show any thermal stabilization
SMILES: CC1CCc2nn(CC(=O)N(C)c3ccccc3)c(C(F)(F)F)c21 (stereo not drawn) [Compound 9]

thermal stabilization of WT Polθ (WT Polθ): did not show any thermal stabilization
SMILES: CN(C(=S)Cn1nc2c(c1C(F)(F)F)CCC2)c1ccccc1 [Compound 14]

microsomal CLint [1]: > 555 µL/min/mg
SMILES: CN(C(=O)Cc1ccc(C(F)(F)F)cc1C(F)(F)F)c1ccccc1 [Compound 15]
major routes of metabolism [2]: N-demethylation and hydroxylation of the phenyl ring | major routes of metabolism [3]: N-demethylation and hydroxylation of the phenyl ring

SMILES: Nc1ccc(C#CCN(C(=O)Cc2ncc(C(F)(F)F)cc2C(F)(F)F)c2ccc(F)cc2)nn1 [RP-6685, N-[3-(6-Aminopyridazin-3-yl)prop-2-ynyl]-2-[3,5-bis(trifluoromethyl)-2-pyridyl]-N-(4-fluorophenyl)acetamide]
activity on Pol λ (Pol λ): inactive | MTD at 21 days ([4]; female, CD1 Nude, mouse, in vivo, po, 80 mg/kg BID): 80 mg/kg | body weight change [4, 13]: no significant body weight loss | tolerability [4, 13]: well tolerated | activity on Pol μ (Pol μ): inactive | tumor growth inhibition [5]: no tumor growth inhibition | IC50 [6]: 500 nM | effect on MMEJ in TLR assay [7]: dose-dependent decrease in MMEJ | IC50 (Pol ε): > 100000 nM | activity on Pol ε (Pol ε): inactive | Papp (in vitro): 6.2 ×10⁻⁶ cm/s | PD markers micronuclei and γH2AX [8]: modest trend towards increased micronuclei and γH2AX | activity on the ATPase activity of full-length Polθ [9]: inactive | clearance [10]: 36.8 mL/min/kg | decline of exposure over the week of dosing [11]: 55 – 67% | difference to vehicle by Day 21 [12]: not statistically significant
